Patent publication US11325884B2, “Ketone inhibitors of lysine gingipain” (CORTEXYME, INC., priority 2016, dated 2022)

What was measured:
[1] = Oral pharmacokinetics in CD-1 mice; type: in vivo; conditions: male CD-1 mice, p.o. 10 mg/kg, as compared to reference compound 73
[2] = target: Kgp (Porphyromonas gingivalis (Bacteroides gingivalis), UniProt Q51817); assay: Detection of Kgp with Cy5 activity-based probe (SDS-PAGE, Cy5 visualization); type: binding; conditions: 100 nM preincubation, P. gingivalis W83
Kgp, sequence (Q51817 229-737 limits assumed): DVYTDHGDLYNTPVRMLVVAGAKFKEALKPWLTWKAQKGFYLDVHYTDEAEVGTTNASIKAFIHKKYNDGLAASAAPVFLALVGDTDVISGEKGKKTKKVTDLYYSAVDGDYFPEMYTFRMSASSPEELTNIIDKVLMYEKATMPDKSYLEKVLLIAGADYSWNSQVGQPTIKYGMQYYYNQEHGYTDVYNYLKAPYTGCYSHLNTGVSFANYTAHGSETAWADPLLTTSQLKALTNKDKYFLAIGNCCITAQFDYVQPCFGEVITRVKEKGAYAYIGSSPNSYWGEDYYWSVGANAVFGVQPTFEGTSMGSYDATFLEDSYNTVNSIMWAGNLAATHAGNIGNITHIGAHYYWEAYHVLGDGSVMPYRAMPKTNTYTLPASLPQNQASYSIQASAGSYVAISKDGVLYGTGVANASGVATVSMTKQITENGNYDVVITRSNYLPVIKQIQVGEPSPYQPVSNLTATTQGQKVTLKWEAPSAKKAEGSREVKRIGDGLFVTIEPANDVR
Experimental: It has a warhead that binds to the Kgp active site, a peptide-based core, and a Cy5 fluorophore for detection. Labeled target proteins can be visualized by biochemical separation of a sample with fractionation by 2-D gel electrophoresis and detection of fluorescent signals from Cy5 at the appropriate excitation and emission wavelength. Incubation of a fixed concentration of the probe following binding of Kgp to a test compound (e.g., a candidate Kgp inhibitor) results in binding of the activity probe to Kgp active sites not already bound by the test compound.
Preparation of P. gingivalis lysate. 10^8 bacteria were collected and centrifuged at 5000 g for 10 min at 4° C., and the supernatant was discarded. The bacterial cell pellet was lysed with 1 mL of B-Per lysis buffer (Thermo Fischer) on ice for 10 min, then centrifuged for 10 min at 14000 g, 4° C. Supernatant-containing protein lysate was collected. Biological samples were lysed with B-Per lysis buffer for 10 min at 4° C.
Cy5 direct labeling of Kgp. Biological samples, P. gingivalis lysate or purified Kgp were incubated with quenchable Cy5 probe compound 71 (1 μM) for 1 h at 37° C. with shaking. […]

[3] = system: P. gingivalis W83; assay: Experimental periodontitis / P. gingivalis infection mouse model; type: in vivo, BALB/C female mice; conditions: for alveolar bone loss: week 5-10, vs vehicle; for reduction in P. gingivalis DNA copy number (RgpB gene) in brain tissue: between week 5 and 10
Source text: P. gingivalis applied over several weeks directly to the gingiva of mice has been used as a model for periodontitis. Alveolar bone resorption, a hallmark of periodontitis progression, is typically observed when this model employed. More recently, use of the model has also led to the discovery of a significant amount P. gingivalis in the brain, which accumulates concomitantly with oral colonization and which subsequently leads to detrimental effects such as inflammation and loss of hippocampal neurons.
At the beginning of the study, eight week old BALB/C female mice received antibiotic in drinking water (sulfamethoxazolum 0.87 mg/mL, trimethoprimum 0.17 mg/mL) for 10 days to reduce microbiome protection from experiment infection. Experimental periodontitis was induced by ligature placement followed by multiple exposures to P. gingivalis. During the ligature procedure mice were anesthetized with an intraperitoneal injection of ketamine (200 mg/kg) and xylazine (10 mg/kg), and eyes were lubricated with ointment (Puralube Vet; Pharmaderm, Melville, N.Y.). Next, a 5-0 silk ligature (Roboz Surgical Instrument Co.) was tied around the upper maxillary left and right second molar. Sutures were applied and tied gently to prevent damage to the periodontal tissue.
Mice (n=8-10/arm) were infected for 6 weeks every other day. For infection, 100 μL of bacteria solution were applied topically to the buccal surface of the maxillae. For preparation of the bacteria, P. gingivalis W83 (ATCC, Rockville, Md.) was streaked on Tryptic Soy Broth (TSB) agar plates (5% sheep blood, supplemented with 0.5 mg/mL L-cysteine, 5 μg/mL hemin, and 0.5 μg/mL vitamin K) and grown under anaerobic conditions at 37° C. for 5-7 days. Samples were then inoculated in TSB with hemin, vitamin K and L-cysteine (TSB-HKC) until mid-log phase (OD600=0.5-0.7). Bacteria were washed in PBS and prepared at final concentration of 1×10^10 cells/mL in PBS+2% methylcellulose (CMC).
Vehicle-treated animals received PBS only. At 5 weeks, a subgroup of animals (n=16) were euthanized to gather baseline measurements before the start of treatment. After 10 weeks, mice were euthanized and the brain, serum, and maxillary tissues were harvested and frozen in liquid nitrogen.
Bone loss in the maxillae was measured ex vivo blinded using OsiriX MD software (PixmeoSARL, Bernex, Switzerland). Point of measurements were obtained using 3D Multi Planar Reconstruction (MPR) view where the maxillae were sliced straight along the superficial roots of second molar and the posterior root of first molar, with a tangent of the anterior root of the first molar. The distance between the cementoenamel junction (CEJ) and the alveolar bone crest (ABC) was measured from the CEJ to a reference line on the ABC which was placed perpendicular to the superficial root one each side of the second molar. […] (ANOVA: F (5, 24)=15.71, p<0.0001; t-test with Bonferroni correction: **p<0.005, ***p<0.001).
DNA was extracted from brain tissue using the DNeasyBLOOD & TISSUE KIT (Qiagen, Germany) according to manufacturer's protocol. Taqman qPCR was performed with Kapa Probe fast qPCR Mix (Rox Low) on a Bio-Rad CFX96 Real-Time System C1000 Touch ThermalCycler with forward and reverse primers, and a detection probe. The primers were based on a single copy of P. gingivalis arginine-specific cysteine-proteinase gene. Duplicate samples were assayed in a total volume of 10 μL, containing 100 ng of template brain genomic DNA solution, TaqMan Universal PCR Master Mix (2×) (Kapa Biosystems, USA), and the specific set of primers (final concentration 5 μM) and probe (final concentration 4 μM) (GenoMed, Poland), corresponding to 562.5 nM for the forward and reverse primers and 100 nM for the probe primer. After an initial incubation step of 2 min at 50° C. and denaturation for 95° C. for 20 sec, 40 PCR cycles (95° C. for 20 s, 60° C. for 30 sec) were performed. […]

[4] = system: P. gingivalis infection; assay: Related studies: brain abeta42 and neuroinflammation; type: in vivo
Source text: By inhibiting Kgp, the compounds disclosed herein can treat P. gingivalis infection itself, as well as the detrimental effects of neurological disease and other infection-associated conditions.

[5] = in vivo, po; cited from earlier work

Compound | oral availability [1] | plasma concentrations [1] | competition for Kgp active site binding with probe compound 71 [2] | alveolar bone loss ([3]; 3 mg/kg orally b.i.d.) | reduction in P. gingivalis DNA copy number (RgpB gene) in brain tissue ([3]; 3 mg/kg) | alveolar bone loss ([3]; 10 mg/kg orally b.i.d.) | reduction in P. gingivalis DNA copy number (RgpB gene) in brain tissue ([3]; 10 mg/kg) | alveolar bone loss ([3]; 30 mg/kg orally b.i.d.) | reduction in P. gingivalis DNA copy number (RgpB gene) in brain tissue ([3]; 30 mg/kg) | GAD67 positive interneurons in the dentate gyrus ([3]; 10 weeks, infected untreated mice lost 25%) | induction of brain abeta42 [4] | neuroinflammation [4] | half-life [5]
NCCCC[C@H](NC(=O)C1CCCC1)C(=O)COc1c(F)ccc(F)c1F [Compound 1, (S)—N-(7-amino-2-oxo-1-(2,3,6-trifluorophenoxy)heptan-3-yl)cyclopentanecarboxamide] | improved | increased | competes for active site binding | trended to improvement but did not result in significant improvement | 50% | improved | 50% | improved | 80% | at the same level as the GAD67^+ cells in the mock-infected mice | reduce | reduce | 
CN(NC(=O)CC[C@H](NC(=O)OCc1ccccc1)C(=O)N[C@@H](CCCCN)C(=O)C(=O)NCc1ccccc1)c1ccccc1 [Kyt-36] |  |  |  |  |  |  |  |  |  |  |  |  | increases
